Measurements as given in patent US8280710B2, “Method for determining thermal stability of collagen or collagen-like peptide” (University of Medicine and Dentistry of New Jersey, priority 2005, dated 2012).
Non-standard residues stand in square brackets, D forms with d. Residues, ends and D or L forms follow the SMILES beside them. Hyp = O=C(O)[C@@H]1C[C@@H](O)CN1

Experiments:
[1] = Method for predicting global Tm of collagen peptides from amino acid sequence; details: observed minus predicted, peptides of Table 3
Experimental: The global thermal stability of homotrimeric triple helical peptides with length of at least 6 tripeptide units and, in most cases, containing 10 tripeptide units was determined as follows.
For the total number of triplets n in a given peptide, the base Tm^0(n) for (Pro-Hyp-Gly) or (Pro-Pro-Gly)n was calculated from the length dependence (Equation 1), including any effect of blocking groups;
The melting temperature value was decreased for every triplet in the sequence that was not Gly-Pro-Hyp, subtracting a value of ΔTm^GXY (Table 1). The N-terminal and C-terminal tripeptide units were excluded from the calculation due to the staggering of the chains and the disorder for the peptide ends (Bella et al. (1994) supra; Li, et al. (1993) Biochemistry 32:7377-7387; Kramer, et al. (2001) J. Mol. Biol. 301:1191-1205).
The resulting value for the peptide melting temperature was adjusted using the ΔTm^int values for interactions between neighboring tripeptides (Table 2).
The method was formulated as follows.
To extrapolate the dependence of the Tm of the host peptides on peptide length, the experimental values for (Pro-Hyp-Gly)n and (Pro-Pro-Gly)n versus n, where n is the number of tripeptide units, were fit to the exponential decay function
[formula] where Tm^0(n) is defined as the base thermal stability of the repeating polytripeptide standard, Tm^max is the maximum melting temperature, and the constant n0 represents the length of the repeating peptide with Tm=0.

[2] = peptide of Table 3, defined standard conditions
Experimental: The propensity measurements for all 20 amino acid residues in the Xaa1 position in a Gly-Xaa1-Hyp context and all 20 amino acid residues in the Xaa2 position in a Gly-Pro-Xaa2 context were determined by measuring thermal stability of host-guest peptides (Persikov, et al. (2000) supra).
The Tm values of all host-guest peptides were measured under a set of standard conditions, with c=1 mg/ml in phosphate-buffered saline, pH 7.0, and with a heating rate average of 0.1° C./minute (Persikov, et al. (2004) supra).

SMILES | ΔTm [1] [°C] | Tm^obs [2] [°C]
CC(=O)NCC(=O)N[C@@H](CO)C(=O)N1C[C@H](O)C[C@H]1C(=O)NCC(=O)N[C@@H](C)C(=O)N[C@@H](CCC(N)=O)C(=O)NCC(=O)N[C@@H](CC(C)C)C(=O)N[C@@H](CCC(N)=O)C(=O)NCC(=O)N1CCC[C@H]1C(=O)N[C@@H](CCCNC(=N)N)C(=O)NCC(=O)N[C@@H](CC(C)C)C(=O)N1C[C@H](O)C[C@H]1C(=O)NCC(=O)N[C@H](C(=O)N1C[C@H](O)C[C@H]1C(=O)NCC(=O)N1CCC[C@H]1C(=O)N1C[C@H](O)C[C@H]1C(=O)NCC(=O)N1CCC[C@H]1C(=O)N1C[C@H](O)C[C@H]1C(=O)NCC(=O)N1CCC[C@H]1C(=O)N1C[C@H](O)C[C@H]1C(=O)NCC(=O)N1CCC[C@H]1C(=O)N1C[C@H](O)C[C@H]1C(=O)NCC(=O)N[C@H](C(=O)O)C(C)C)[C@@H](C)O [T2-508, Ac-GSO-GAQ-GLQ-GPR-GLO-GTO-(GPO)4-GV-OH] (Ac-GS[Hyp]GAQGLQGPRGL[Hyp]GT[Hyp]GP[Hyp]GP[Hyp]GP[Hyp]GP[Hyp]GV-OH) | 3.9 | 25.0
CC(=O)NCC(=O)N1CCC[C@H]1C(=O)N1C[C@H](O)C[C@H]1C(=O)NCC(=O)N1CCC[C@H]1C(=O)N1C[C@H](O)C[C@H]1C(=O)NCC(=O)N[C@@H](CCCNC(=N)N)C(=O)N1C[C@H](O)C[C@H]1C(=O)NCC(=O)N[C@@H](CCCNC(=N)N)C(=O)N[C@@H](CCCCN)C(=O)NCC(=O)N[C@@H](CCCNC(=N)N)C(=O)N1C[C@H](O)C[C@H]1C(=O)NCC(=O)N1CCC[C@H]1C(=O)N1C[C@H](O)C[C@H]1C(=O)NCC(=O)N1CCC[C@H]1C(=O)N1C[C@H](O)C[C@H]1C(=O)NCC(=O)N1CCC[C@H]1C(=O)N1C[C@H](O)C[C@H]1C(=O)NCC(=O)N1CCC[C@H]1C(=O)N1C[C@H](O)C[C@H]1C(=O)NCC(=O)N1CCC[C@H]1C(=O)N1C[C@H](O)C[C@H]1C(=O)NCC(N)=O [AchE-P126 (r), Ac-GPO-GPO-GRO-GRK-GRO-(GPO)5-G-NH2] (Ac-GP[Hyp]GP[Hyp]GR[Hyp]GRKGR[Hyp]GP[Hyp]GP[Hyp]GP[Hyp]GP[Hyp]GP[Hyp]G-NH2) | −2.6 | 30.0
CC(=O)NCC(=O)N1CCC[C@H]1C(=O)N1C[C@H](O)C[C@H]1C(=O)NCC(=O)N1CCC[C@H]1C(=O)N1C[C@H](O)C[C@H]1C(=O)NCC(=O)N1CCC[C@H]1C(=O)N1C[C@H](O)C[C@H]1C(=O)NCC(=O)N[C@@H](CCCCN)C(=O)N[C@@H](CCCNC(=N)N)C(=O)NCC(=O)N[C@@H](CCCCN)C(=O)N1C[C@H](O)C[C@H]1C(=O)NCC(=O)N1CCC[C@H]1C(=O)N1C[C@H](O)C[C@H]1C(=O)NCC(=O)N1CCC[C@H]1C(=O)N1C[C@H](O)C[C@H]1C(=O)NCC(=O)N1CCC[C@H]1C(=O)N1C[C@H](O)C[C@H]1C(=O)NCC(=O)NCC(N)=O [AchE-HG-C1, Ac-GPO-GPO-GPO-GKR-GKO-GPO-GPO-GPO-GG-NH2] (Ac-GP[Hyp]GP[Hyp]GP[Hyp]GKRGK[Hyp]GP[Hyp]GP[Hyp]GP[Hyp]GG-NH2) | −1.0 | 32.3
CC(=O)NCC(=O)N1CCC[C@H]1C(=O)N1C[C@H](O)C[C@H]1C(=O)NCC(=O)N1CCC[C@H]1C(=O)N1C[C@H](O)C[C@H]1C(=O)NCC(=O)N[C@@H](CCCNC(=N)N)C(=O)N1C[C@H](O)C[C@H]1C(=O)NCC(=O)N[C@@H](CCCCN)C(=O)N[C@@H](CCCNC(=N)N)C(=O)NCC(=O)N[C@@H](CCCCN)C(=O)N[C@@H](CCC(N)=O)C(=O)NCC(=O)N[C@@H](CCC(N)=O)C(=O)N[C@@H](CCCCN)C(=O)NCC(=O)N1CCC[C@H]1C(=O)N1C[C@H](O)C[C@H]1C(=O)NCC(=O)N1CCC[C@H]1C(=O)N1C[C@H](O)C[C@H]1C(=O)NCC(=O)NCC(N)=O [AchE-HG-C4, Ac-GPO-GPO-GRO-GKR-GKQ-GQK-GPO-GPO-GG-NH2] (Ac-GP[Hyp]GP[Hyp]GR[Hyp]GKRGKQGQKGP[Hyp]GP[Hyp]GG-NH2) | −1.2 | 8.1
CC(=O)NCC(=O)N1CCC[C@H]1C(=O)N1C[C@H](O)C[C@H]1C(=O)NCC(=O)N1CCC[C@H]1C(=O)N1C[C@H](O)C[C@H]1C(=O)NCC(=O)N1CCC[C@H]1C(=O)N1C[C@H](O)C[C@H]1C(=O)NCC(=O)N[C@@H](CCCNC(=N)N)C(=O)N[C@@H](CCCCN)C(=O)NCC(=O)N[C@@H](CCCNC(=N)N)C(=O)N1C[C@H](O)C[C@H]1C(=O)NCC(=O)N1CCC[C@H]1C(=O)N1C[C@H](O)C[C@H]1C(=O)NCC(=O)N1CCC[C@H]1C(=O)N1C[C@H](O)C[C@H]1C(=O)NCC(=O)N1CCC[C@H]1C(=O)N1C[C@H](O)C[C@H]1C(=O)NCC(=O)NCC(N)=O [AchE-HG-N1, Ac-GPO-GPO-GPO-GRK-GRO-GPO-GPO-GPO-GG-NH2] (Ac-GP[Hyp]GP[Hyp]GP[Hyp]GRKGR[Hyp]GP[Hyp]GP[Hyp]GP[Hyp]GG-NH2) | −0.6 | 22.2
CC(=O)NCC(=O)N1CCC[C@H]1C(=O)N1C[C@H](O)C[C@H]1C(=O)NCC(=O)N1CCC[C@H]1C(=O)N1C[C@H](O)C[C@H]1C(=O)NCC(=O)N[C@@H](CCCNC(=N)N)C(=O)N1C[C@H](O)C[C@H]1C(=O)NCC(=O)N[C@@H](CCCCN)C(=O)N[C@@H](CCCNC(=N)N)C(=O)NCC(=O)N[C@@H](CCCCN)C(=O)N[C@@H](CCC(N)=O)C(=O)NCC(=O)N1CCC[C@H]1C(=O)N1C[C@H](O)C[C@H]1C(=O)NCC(=O)N1CCC[C@H]1C(=O)N1C[C@H](O)C[C@H]1C(=O)NCC(=O)N1CCC[C@H]1C(=O)N1C[C@H](O)C[C@H]1C(=O)NCC(=O)NCC(N)=O [AchE-HG-C3, Ac-GPO-GPO-GRO-GKR-GKQ-GPO-GPO-GPO-GG-NH2] (Ac-GP[Hyp]GP[Hyp]GR[Hyp]GKRGKQGP[Hyp]GP[Hyp]GP[Hyp]GG-NH2) | −2.7 | 21.3
CC(=O)NCC(=O)N1CCC[C@H]1C(=O)N[C@@H](C)C(=O)NCC(=O)N1CCC[C@H]1C(=O)N[C@@H](C)C(=O)NCC(=O)N1CCC[C@H]1C(=O)N[C@H](C(=O)NCC(=O)N1CCC[C@H]1C(=O)N[C@@H](C)C(=O)NCC(=O)N[C@@H](C)C(=O)N[C@@H](CCCNC(=N)N)C(=O)NCC(=O)N1CCC[C@H]1C(=O)N[C@@H](C)C(=O)NCC(=O)N1CCC[C@H]1C(=O)N1C[C@H](O)C[C@H]1C(=O)NCC(=O)N1CCC[C@H]1C(=O)N1C[C@H](O)C[C@H]1C(=O)NCC(=O)N1CCC[C@H]1C(=O)N1C[C@H](O)C[C@H]1C(=O)NCC(=O)N1CCC[C@H]1C(=O)N1C[C@H](O)C[C@H]1C(=O)NCC(=O)N[C@H](C(N)=O)C(C)C)C(C)C [T1-892, Ac-GPA-GPA-GPV-GPA-GAR-GPA-(GPO)4-GV-NH2] (Ac-GPAGPAGPVGPAGARGPAGP[Hyp]GP[Hyp]GP[Hyp]GP[Hyp]GV-NH2) | −2.2 | 26.0
CC(=O)NCC(=O)N1CCC[C@H]1C(=O)N1C[C@H](O)C[C@H]1C(=O)NCC(=O)N1CCC[C@H]1C(=O)N1C[C@H](O)C[C@H]1C(=O)NCC(=O)N[C@@H](CCCNC(=N)N)C(=O)N1C[C@H](O)C[C@H]1C(=O)NCC(=O)N[C@@H](CCCNC(=N)N)C(=O)N[C@@H](CCCCN)C(=O)NCC(=O)N[C@@H](CCCNC(=N)N)C(=O)N1C[C@H](O)C[C@H]1C(=O)NCC(=O)N1CCC[C@H]1C(=O)N1C[C@H](O)C[C@H]1C(=O)NCC(=O)N1CCC[C@H]1C(=O)N1C[C@H](O)C[C@H]1C(=O)NCC(=O)N1CCC[C@H]1C(=O)N1C[C@H](O)C[C@H]1C(=O)NCC(=O)NCC(N)=O [AchE-HG-N2, Ac-GPO-GPO-GRO-GRK-GRO-GPO-GPO-GPO-GG-NH2] (Ac-GP[Hyp]GP[Hyp]GR[Hyp]GRKGR[Hyp]GP[Hyp]GP[Hyp]GP[Hyp]GG-NH2) | 1.3 | 17.4
CC(=O)NCC(=O)N1CCC[C@H]1C(=O)N1C[C@H](O)C[C@H]1C(=O)NCC(=O)N1CCC[C@H]1C(=O)N1C[C@H](O)C[C@H]1C(=O)NCC(=O)N[C@@H](CCCNC(=N)N)C(=O)N1C[C@H](O)C[C@H]1C(=O)NCC(=O)N[C@@H](CCCCN)C(=O)N[C@@H](CCCNC(=N)N)C(=O)NCC(=O)N[C@@H](CCCCN)C(=O)N[C@@H](CCC(N)=O)C(=O)NCC(=O)N[C@@H](CCC(N)=O)C(=O)N[C@@H](CCCCN)C(=O)NCC(=O)N1CCC[C@H]1C(=O)N1C[C@H](O)C[C@H]1C(=O)NCC(=O)N1CCC[C@H]1C(=O)N1C[C@H](O)C[C@H]1C(=O)NCC(=O)N1CCC[C@H]1C(=O)N1C[C@H](O)C[C@H]1C(=O)NCC(=O)N1CCC[C@H]1C(=O)N1C[C@H](O)C[C@H]1C(=O)NCC(N)=O [AchE-P231 (r), Ac-GPO-GPO-GRO-GKR-GKQ-GQK-(GPO)4-G-NH2] (Ac-GP[Hyp]GP[Hyp]GR[Hyp]GKRGKQGQKGP[Hyp]GP[Hyp]GP[Hyp]GP[Hyp]G-NH2) | −1.9 | 23.9
